From ChEMBL document CHEMBL1201862, “PubChem BioAssay data set” (2004)
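Step 1: Grow cells in 96-well plates. Step 2: Expose to compound for 48 hours at 5 concentrations. Step 3: Interpolate endpoints linearly; if unreached, use highest concentration. GI50: concentration for 50% inhibition of growth.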 Activity calls are given as the source filed them. Cut-off read from the data, not from the text of the source: active = GI50 up to about 1.1 µM and inactive = higher.

Tests used:
Assay in all cases: NCI tumour cell line growth inhibition, 48 h
NCI-H23 = tested on: NCI-H23
BT-549 = tested on: BT-549
CAKI-1 = tested on: CAKI-1
OVCAR-3 = tested on: OVCAR-3
OVCAR-8 = tested on: OVCAR-8
UO-31 = tested on: UO-31
HOP-92 = tested on: HOP-92
HL-60 = tested on: HL-60
CCRF-CEM = tested on: CCRF-CEM
RPMI-8226 = tested on: RPMI-8226
RXF 393 = tested on: RXF 393
COLO 205 = tested on: COLO 205
OVCAR-5 = tested on: OVCAR-5
Hs-578T = tested on: Hs-578T
SK-MEL-2 = tested on: SK-MEL-2
NCI-H522 = tested on: NCI-H522
A549 = tested on: A549
SNB-75 = tested on: SNB-75
K562 = tested on: K562
UACC-257 = tested on: UACC-257

Structure (SMILES) | GI50 (NCI-H23) | GI50 (BT-549) | GI50 (CAKI-1) | GI50 (OVCAR-3) | GI50 (OVCAR-8) | GI50 (UO-31) | GI50 (HOP-92) | GI50 (HL-60) | GI50 (CCRF-CEM) | GI50 (RPMI-8226) | GI50 (RXF 393) | GI50 (COLO 205) | GI50 (OVCAR-5) | GI50 (Hs-578T) | GI50 (SK-MEL-2) | GI50 (NCI-H522) | GI50 (A549) | GI50 (SNB-75) | GI50 (K562) | GI50 (UACC-257)
Cc1ccc2c(c1)Sc1ccc(/N=N/N(C)C)cc1N2C | > 100 µM (inactive) | 71 µM (inactive) | > 100 µM (inactive) | 53.2 µM (inactive) | > 100 µM (inactive) | > 100 µM (inactive) | 48.5 µM (inactive) | 64.6 µM (inactive) | 46 µM (inactive) | 59.4 µM (inactive) | > 100 µM (inactive) | 78.9 µM (inactive) | > 100 µM (inactive) | > 100 µM (inactive) | > 100 µM (inactive) | > 100 µM (inactive) | > 100 µM (inactive) | > 100 µM (inactive) | – | –
N#Cc1c(-c2cccc(Br)c2)cc(-c2ccc(Cl)cc2)nc1N | 25 µM (inactive) | 33 µM (inactive) | 25.6 µM (inactive) | 25.4 µM (inactive) | 32 µM (inactive) | 19 µM (inactive) | 11.2 µM (inactive) | 31 µM (inactive) | 27.2 µM (inactive) | 17 µM (inactive) | 15.8 µM (inactive) | 13.7 µM (inactive) | 25.5 µM (inactive) | 19.1 µM (inactive) | 11.6 µM (inactive) | 14.1 µM (inactive) | 21 µM (inactive) | – | 25.6 µM (inactive) | 17.3 µM (inactive)
CCOC(=O)c1sc(N)nc1N1CCCC1 | > 100 µM (inactive) | > 100 µM (inactive) | > 100 µM (inactive) | > 100 µM (inactive) | > 100 µM (inactive) | > 100 µM (inactive) | > 100 µM (inactive) | > 100 µM (inactive) | > 100 µM (inactive) | > 100 µM (inactive) | 0.942 µM (active) | > 100 µM (inactive) | > 100 µM (inactive) | > 100 µM (inactive) | > 100 µM (inactive) | > 100 µM (inactive) | > 100 µM (inactive) | > 100 µM (inactive) | > 100 µM (inactive) | > 100 µM (inactive)
COc1ccc(/C=C(/C)[N+](=O)[O-])cc1 | 2.03 µM (inactive) | 2.75 µM (inactive) | 2.32 µM (inactive) | 1.82 µM (inactive) | 2.22 µM (inactive) | 1.67 µM (inactive) | 2 µM (inactive) | 2.62 µM (inactive) | 0.565 µM (active) | 0.394 µM (active) | 1.69 µM (inactive) | 2.08 µM (inactive) | 3.19 µM (inactive) | 9.02 µM (inactive) | 4.95 µM (inactive) | 0.292 µM (active) | 4.21 µM (inactive) | 1.26 µM (inactive) | 2.62 µM (inactive) | 1.5 µM (inactive)
